Measurements from patent publication US20080207622A1, “SOLUBLE EPOXIDE HYDROLASE INHIBITORS” (Arete Therapeutics, Inc., priority 2006, published 2008).

Legend:
[1] = system: soluble epoxide hydrolase (sEH); test: Fluorescent assay for mouse and human soluble epoxide hydrolase (CMNPC substrate); assay type: biochemical
Text: Fluorescent Assay for Mouse and Human Soluble Epoxide Hydrolase
Recombinant mouse sEH (MsEH) and human sEH (HsEH) were produced in a baculovirus expression system as previously reported. Grant et al., J. Biol. Chem., 268:17628-17633 (1993); Beetham et al., Arch. Biochem. Biophys., 305:197-201 (1993). The expressed proteins were purified from cell lysate by affinity chromatography. Wixtrom et al., Anal. Biochem., 169:71-80 (1988). Protein concentration was quantified using the Pierce BCA assay using bovine serum albumin as the calibrating standard. The preparations were at least 97% pure as judged by SDS-PAGE and scanning densitometry. They contained no detectable esterase or glutathione transferase activity which can interfere with the assay. The assay was also evaluated with similar results in crude cell lysates or homogenate of tissues.
The IC50s for each inhibitor were determined according to the following procedure:
Cyano(2-methoxynaphthalen-6-yl)methyl (3-phenyloxiran-2-yl)methyl carbonate (CMNPC; Jones P. D. et. al.; Analytical Biochemistry 2005; 343: pp. 66-75)
Bis/Tris HCl 25 mM pH 7.0 containing 0.1 mg/mL of BSA (buffer A) CMNPC at 0.25 mM in DMSO.
Mother solution of enzyme in buffer A (Mouse sEH at 6 μg/mL and Human sEH at 5 μg/mL).
Inhibitor dissolved in DMSO at the appropriate concentration.
In a black 96 well plate, fill all the wells with 150 μL of buffer A.
Add 2 μL of DMSO in well A2 and A3, and then add 2 μL of inhibitor solution in A1 and A4 through A12.
Add 150 μL of buffer A in row A, then mix several time and transfer 150 μL to row B. Repeat this operation up to row H. The 150 μL removed from row H is discarded.
Add 20 μL of buffer A in column 1 and 2, then add 20 μL of enzyme solution to column 3 to 12.
Incubate the plate for 5 minutes in the plate reader at 30° C.
During incubation prepare the working solution of substrate by mixing 3.68 mL of buffer A (4×0.920 mL) with 266 μL (2×133 μL) of substrate solution).
At t=0, add 30 μL of working substrate solution with multi-channel pipette labeled “Briggs 303” and start the reading ([S]final: 5 μM).
Read with ex: 330 nm (20 nm) and em: 465 nm (20 nm) every 30 second for 10 minutes. The velocities are used to analyze and calculate the IC50s.

Row | % Inhibition ([1]; Conc. 50 nM) [%] | Structure (SMILES) | further results
1 | 92 | O=C(Nc1ccc(C(F)(F)F)cc1)Nc1ccc(S(=O)(=O)c2ccccc2)cc1 [Compound 1, 1-(4-Benzenesulfonyl-phenyl)-3-(4-trifluoromethyl-phenyl)-urea] | 
2 | 79 | CS(=O)(=O)c1ccc(NC(=O)Nc2ccc(C(F)(F)F)cc2)cc1 [Compound 2, 1-(4-Methanesulfonyl-phenyl)-3-(4-trifluoromethyl-phenyl)-urea] | 
3 | 88 | CS(=O)(=O)c1cccc(NC(=O)Nc2ccc(C(F)(F)F)cc2)c1 [Compound 3, 1-(3-Methanesulfonyl-phenyl)-3-(4-trifluoromethyl-phenyl)-urea] | 
4 |  | O=C(Nc1ccccc1)Nc1cccc(S(=O)(=O)CCCN2CCOCC2)c1 [Compound 4, 1-[3-(3-Morpholin-4-yl-propane-1-sulfonyl)-phenyl]-3-phenyl-urea] | % Inhibition ([1]; Conc. 500 nM): 74%
5 |  | COc1ccc(S(=O)(=O)c2ccc(NC(=O)NC34CC5CC(CC(C5)C3)C4)cc2)nn1 [Compound 10, 1-Adamantan-1-yl-3-[4-(6-methoxy-pyridazine-3-sulfonyl)-phenyl]-urea] | % Inhibition ([1]; Conc. 2000 nM): 100%; melting point: 252 to 254 °C
